Measured values reported in patent US12667568B2, “Compositions and methods for the treatment and diagnosis of cancer” (The General Hospital Corporation, priority 2020, dated 2026).

What was measured:
Format in all cases: cell-based
U2OS or MCF7 cells = assay: Cell survival assay, YW-1842 alone; conditions: concentration below 5 μM/L
Procedure: FIGS. 6F-6G show TRDMT1 inhibitor YW-1842 delays the repair of DSBs at the transcribed genome. (FIG. 6F) U2OS or MCF7 cells were treated with or without compound YW-1842 at the indicated concentration. The survival rate of these cells was shown (n=3, Mean±SD). (FIG. 6G) SCE WT cells were transfected with TA-KR and were cultured with […] YW-1842 or not for 6 hours, γ-H2AX (n=3, 50 cells per replicated, Mean±SD) were stained and quantified.
(§1) Approximately 500 U2OS/TRDMT1 KO U2OS/MCF-7/HCC1954/HCC1937 cells and TRDMT1 siRNA or GFP-TRDMT1 WT/G155V/K251R transfected cells were seeded in 6 cm dish with or without TRDMT1 inhibitors (2.5 μM/L). 6 hrs after seeding, cells were exposed to cisplatin (1134357, Sigma, 1 μM/L), ATMi (KU55933, C9867, Sigma, 1 μM/L), ATRi (AZ20, 57050, Selleck, 1 μM/L) or PARPi (Olaparib, AZD2461, Sigma, 1 μM/L) at indicated concentration or ionizing radiation (IR). After 7-14 days, colonies were fixed and stained with 0.3% crystal violet in methanol, and the number of colonies was counted manually.

[1] = test system: HST578, MBAMD231, HCC1937, HCC1954 cancer cells; assay: Cell survival assay, TRDMT1i alone (Example 19)
Procedure: FIGS. 14A-14C show TRDMT1i alone reduce cancer cell survival in a dose-dependent manner. (FIG. 14A) Survival rate of HR proficient (HR+) HST578 cancer cells with and without siBRCA1 and/or TRDMT1i YW-1842 at indicated dose. The survival rate of these cells was analyzed (n=3, Mean±SD). (FIG. 14B) Survival rate of MBAMD231 (HR+) and HCC1937 (HRD) cells. The survival rate of these cells was analyzed (n=3, Mean±SD). (FIG. 14C) Cell survival rate in different cancer cell lines via colony-forming assay with the treatment of Imatinib at indicated dose (n=3, mean+/−S.D.). Cell lines are listed in order with the expression level from SYCP2high to SYCP2low.
Cells were seeded in each 6-cm dish and cultured as described above. They were treated with drugs with indicated dose in medium after seeding. After 7-10 days, colonies were fixed and stained with 0.3% crystal violet in methanol, and the number of colonies was counted manually.

U2OS (EJ5-GFP) cells = assay: EJ5-GFP NHEJ reporter assay; conditions: 2.5 μM/L, 6 h pre-treatment, TRDMT1 wild type cells
Procedure: (§2) FIGS. 6A-6E show TRDMT1 Inhibitors specifically sensitizes cells to DNA damage agents. (FIG. 6A) SCE WT cells were transfected with TA-KR and were cultured with 2.5 μM/L compound YW-1842 or not for 6 hours, m^5C (n=3, 50 cells per replicated, Mean±SD) was stained and quantified. DR-GFP (FIG. 6B) or EJ5-GFP (FIG. 6C) cells were pre-treated with 2.5 μM/L compound YW-1842 for 6 h or TRDMT1 siRNA for 48 h, or DMSO. Then the cells were transfected with NLS-I-SceI plasmid to induce DSB. The efficiency of HR (FIG. 6B) or NHEJ (FIG. 6C) was analyzed by flow-cytometry (n=3, Mean f SD). (FIG. 6D) After seeding, MCF-7, HCC1954, and HCC1937 cells were pre-treated with or without 2.5 μM/L compound YW-1842 for 6 h, then cultured with chemotherapy drugs (1 μM/L Cisplatin; 1 μM/L ATRi AZ20; […]; 1 μM/L PARPi Olaparib for 10 days. The survival rate of these cells was analyzed (n=3, Mean±SD). (FIG. 6E) TRDMT1 KO U2OS cells were transfected with GFP-TRDMT1^WT or GFP-TRDMT1^G155V with or without 2.5 μM/L compound YW-1842, the survival rate of these cells after IR or Cisplatin was shown (n=3, Mean±SD).
(§3) Using a previously described method[Lan, L. et al. The ACF1 complex is required for DNA double-strand break repair in human cells. […] The GFP signal arising from the recombination (HR) or non-homologous end joining (NHEJ) events were measured by flow cytometry.

[2] = test system: MCF-7, HCC1954, and HCC1937 cells; assay: Cell survival assay, YW-1842 with DNA damaging agents, IR or H2O2
Procedure: as §2
MCF-7, HCC1954, and HCC1937 cells were pre-treated with or without TRDMT1 inhibitor YW-1842 (2.5 μM) for 6 hrs, then the cells were exposed to IR or H2O2, and cultured for 7-14 days. The survival rate of these cells was analyzed (n=3, Mean±SD)
as §1

TRDMT1 KO U2OS cells = assay: Cell survival assay in TRDMT1 KO cells after IR or Cisplatin; conditions: 2.5 μM/L
Procedure: as §2
Approximately 500 U2OS/TRDMT1 KO U2OS/MCF-7/HCC1954/HCC1937 cells and TRDMT1 siRNA or GFP-TRDMT1 WT/G155V/K251R transfected cells were seeded in 6 cm dish with or without TRDMT1 inhibitors (2.5 μM/L). […]

γ-H2AX foci = γ-H2AX foci clearance after damage; conditions: 2.5 μM/L YW-1842, cells after IR
Procedure: FIGS. 6F-6G show TRDMT1 inhibitor YW-1842 delays the repair of DSBs at the transcribed genome. (FIG. 6F) U2OS or MCF7 cells were treated with or without compound YW-1842 at the indicated concentration. […]
Cells for immunofluorescence observation were fixed in 4% PFA (Affymetrix, 19943 1 LT) at room temperature for 15 min and further treated with 0.2% triton for 10 min. They were then blocked by 3% BSA (SIGMA, A-7030) at room temperature for 1 h. Primary antibody for RAD51(ab63801, Abcam, 1:200)), RAD52(sc-365341, Santa Cruz, CA, USA, 1:500), TRIM28 (ab10484, Abcam, 1:500), γH2AX ser139 (JBW301, 05-636, EMD Millipore, 1:200), were incubated with cells at 4° C. overnight. After washing with 0.05% PBS-Tween (PBST), the cells were incubated with secondary antibody for 1 h at room temperature.

U2OS (DR-GFP) cells = assay: DR-GFP HR reporter assay; conditions: 2.5 μM/L, 6 h pre-treatment, versus DMSO
Procedure: as §2, §3

## COc1cc2nc(-n3cc(-c4ccc(S(C)(=O)=O)cc4)cn3)nc(-c3ccsc3)c2cc1OC [YW-1842, 6,7-dimethoxy-2-(4-(4-(methylsulfonyl)phenyl)-1H-pyrazol-1-yl)-4-(thiophen-3-yl)quinazoline]
U2OS or MCF7 cells
  antiproliferative effect: did not prohibit cell proliferation
[1]; HCC1937 (HRD) versus MBAMD231 (HR+)
  sensitivity of HR deficient cells to TRDMT1i alone: more sensitive
[1]; HCC1954, HRD, high SYCP2
  killing of HCC1954: efficiently killed HCC1954
[1]; HR-proficient HST578 cells
  cancer cell survival, TRDMT1i alone: kills HR-proficient cancer cells HST578 in a dose-dependent manner
[1]; HST578 cells with siBRCA1
  TRDMT1i sensitivity on BRCA1 knockdown: significantly increased TRDMT1i sensitivity
[1]; cell lines ordered SYCP2high to SYCP2low (FIG. 14C)
  killing across cancer cell lines by SYCP2 level and HR status: killed SYCP2-high cancer cell lines and HR deficient cells the most efficiently
U2OS (EJ5-GFP) cells
  non-homologous end joining (NHEJ) efficiency: no obvious changes
[2]; 2.5 μM, combined with H2O2, versus DMSO
  survival rate in combination with H2O2: decreased the survival rate of all the three cell lines
[2]; 2.5 μM/L with Cisplatin, ATRi AZ20, ATMi KU55933 or PARPi Olaparib, versus single treatment
  sensitization to DNA damaging agents (survival rate): sensitizes the cells to above DNA damaging agents
[2]; 2.5 μM/L, alone
  cell killing by compound alone: does not kill cells alone
[2]; YW-1842 2.5 μM, Olaparib at 1, HCC 1954 cell lines
  synergy with PARPi Olaparib: strong synergy
TRDMT1 KO U2OS cells
  sensitization of TRDMT1 KO cells to IR or Cisplatin: does not sensitize TRDMT1 KO
γ-H2AX foci
  DNA repair efficiency, clearance of γ-H2AX foci: delayed clearance of γ-H2AX foci
U2OS (DR-GFP) cells
  HR-mediated repair of I-SceI-generated DSBs (DR-GFP): diminished the repair of I-SceI-generated DSBs
